The text below walks through data of paper PMC5856881, “UGT79B31 is responsible for the final modification step of pollen-specific flavonoid biosynthesis in Petunia hybrida” (Planta, 2017).

For this assay, the target named is T1, UGT79B31 (Petunia x hybrida, UniProt A0A2Z6FLE1).
T1 construct: full-length, cloned from petunia pollen cDNA; His/ProS2 fusion (pColdProS2) in E. coli BL21star (DE3), tag cleaved with HRV3C protease; partially purified
The assay can be described thus: end-product inhibition, UPLC/PDA/QTOF/MS glucosyltransferase assay. The format is biochemical. The following applies: read-out: Relative activity (%). From the text:
end-product inhibition, UPLC/PDA/QTOF/MS glucosyltransferase assay on UGT79B31

The structures appear in SMILES notation.

T1 sequence (A0A2Z6FLE1 1-455): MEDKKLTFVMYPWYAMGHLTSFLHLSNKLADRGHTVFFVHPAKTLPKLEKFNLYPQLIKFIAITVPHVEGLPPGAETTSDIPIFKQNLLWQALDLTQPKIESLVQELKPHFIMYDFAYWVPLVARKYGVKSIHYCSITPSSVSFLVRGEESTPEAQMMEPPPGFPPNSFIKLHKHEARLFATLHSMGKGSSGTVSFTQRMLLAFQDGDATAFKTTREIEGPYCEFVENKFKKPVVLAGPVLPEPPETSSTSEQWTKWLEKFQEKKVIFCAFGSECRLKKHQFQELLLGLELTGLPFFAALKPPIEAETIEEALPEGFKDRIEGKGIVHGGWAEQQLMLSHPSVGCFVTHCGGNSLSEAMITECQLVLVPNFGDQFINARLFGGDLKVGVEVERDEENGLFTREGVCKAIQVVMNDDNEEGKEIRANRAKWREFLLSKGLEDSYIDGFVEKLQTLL

`O=c1ccn([C@@H]2O[C@H](COP(=O)(O)OP(=O)(O)O)[C@@H](O)[C@H]2O)c(=O)[nH]1` [UDP]: the activity at 1000 µM came out at 4.2 ± 0.1%.
